Measurements published in ChEMBL document CHEMBL4364252, “Tetrahydropyrazolo[1,5-a]pyridine-fused steroids and their in vitro biological evaluation in prostate cancer” (2019).
Calls of active or inactive are those of the source. No cut-off for these calls is given here.

Key:
[1] = test system: LAPC4; test: Antiproliferative activity against AR-positive human LAPC4 cells assessed as cell viability at 40 uM measured after 72 hrs by resazurin dye based fluorescence assay relative to control; type: functional; conditions: LAPC4, 72 h, read-out: Activity
[2] = test system: CWR22R; test: Antiproliferative activity against human AR-positive 22Rv1 cells harboring ARE14 construct assessed as growth inhibition measured after 72 hrs by resazurin dye based fluorescence assay; type: functional; conditions: 22Rv1, 72 h
[3] = test system: PC-3; test: Antiproliferative activity against AR-negative human PC3 cells assessed as growth inhibition measured after 72 hrs by resazurin dye based fluorescence assay; type: functional; conditions: PC-3, 72 h
[4] = test system: VCaP; test: Antiproliferative activity against AR-positive human VCaP cells assessed as growth inhibition measured after 72 hrs by resazurin dye based fluorescence assay; type: functional
[5] = test system: LNCaP; test: Antiproliferative activity against AR-positive human LNCAP cells assessed as growth inhibition measured after 72 hrs by resazurin dye based fluorescence assay; type: functional
[6] = test system: CWR22R; test: Effect on AR-V7 variant protein expression in AR-positive human 22Rv1 cells harboring ARE14 construct at 10 uM after 24 hrs by immunoblot analysis; type: functional, cell-based
[7] = target: T1, Androgen receptor (Homo sapiens) (UniProt P10275); conditions: at 10 µM
T1 sequence (whole entry): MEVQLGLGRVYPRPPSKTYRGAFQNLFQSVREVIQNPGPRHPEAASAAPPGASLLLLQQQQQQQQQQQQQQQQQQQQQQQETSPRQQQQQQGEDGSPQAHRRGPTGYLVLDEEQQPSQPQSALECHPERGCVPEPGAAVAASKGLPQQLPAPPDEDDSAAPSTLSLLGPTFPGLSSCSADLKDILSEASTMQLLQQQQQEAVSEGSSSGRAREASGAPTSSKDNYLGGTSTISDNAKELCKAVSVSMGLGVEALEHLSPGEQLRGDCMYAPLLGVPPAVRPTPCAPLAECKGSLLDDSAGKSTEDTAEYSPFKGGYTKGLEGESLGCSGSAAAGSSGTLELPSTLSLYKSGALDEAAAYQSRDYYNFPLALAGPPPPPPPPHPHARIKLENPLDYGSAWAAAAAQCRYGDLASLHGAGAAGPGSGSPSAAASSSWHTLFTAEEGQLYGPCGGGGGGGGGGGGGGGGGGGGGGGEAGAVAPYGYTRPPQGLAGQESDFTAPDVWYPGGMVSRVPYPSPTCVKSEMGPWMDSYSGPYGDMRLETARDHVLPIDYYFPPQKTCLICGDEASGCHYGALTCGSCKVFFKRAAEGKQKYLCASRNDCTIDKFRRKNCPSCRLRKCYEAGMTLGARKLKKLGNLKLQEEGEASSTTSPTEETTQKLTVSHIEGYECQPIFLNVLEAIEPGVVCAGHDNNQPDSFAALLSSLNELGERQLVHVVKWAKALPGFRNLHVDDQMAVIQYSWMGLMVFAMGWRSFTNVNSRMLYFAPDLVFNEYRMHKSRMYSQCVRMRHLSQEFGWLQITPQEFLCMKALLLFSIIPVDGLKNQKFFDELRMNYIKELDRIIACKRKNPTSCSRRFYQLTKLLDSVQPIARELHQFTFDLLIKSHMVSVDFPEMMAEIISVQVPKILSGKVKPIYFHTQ
Description: Inhibition of AR transcriptional activity in AR-positive human 22Rv1 cells harboring ARE14 construct assessed as suppression of PSA expression at 10 uM after 24 hrs by immunoblot analysis

[8] = test system: CWR22R; test: Induction of apoptosis in R1881-activated AR-positive human 22Rv1 cells harboring ARE14 construct assessed as cleaved PARP level at 5 to 20 uM after 24 hrs by immunoblot analysis; type: functional, cell-based
[9] = test system: PC-3; test: Antiproliferative activity against AR-negative human PC3 cells assessed as cell viability at 40 uM measured after 72 hrs by resazurin dye based fluorescence assay relative to control; type: functional; conditions: PC-3, 72 h, read-out: Activity
[10] = target: T1, Androgen receptor (Homo sapiens); test: Inhibition of AR transcriptional activity in AR-positive human VCaP cells assessed as NKX3.1 protein expression at 5 to 20 uM after 24 hrs by immunoblot analysis; type: cell-based
[11] = target: T1, Androgen receptor (Homo sapiens); test: Inhibition of AR transcriptional activity in AR-positive human VCaP cells assessed as decrease in NKX3.1 protein expression at 20 uM upto 72 hrs by immunoblot analysis; type: cell-based
[12] = target: T1, Androgen receptor (Homo sapiens); test: Inhibition of R1881 induced-AR transcriptional activity in AR-positive human 22Rv1 cells harboring ARE14 construct assessed as luciferase activity at 10 uM after 24 hrs by luciferase assay relative to control; set-up: scale not given: the % may be the effect or the level left
[13] = test system: VCaP; test: Antiproliferative activity against AR-positive human VCaP cells assessed as cell viability at 40 uM measured after 72 hrs by resazurin dye based fluorescence assay relative to control; type: functional; conditions: read-out: Activity
[14] = test system: LAPC4; test: Antiproliferative activity against AR-positive human LAPC4 cells assessed as growth inhibition measured after 72 hrs by resazurin dye based fluorescence assay; type: functional; conditions: LAPC4, 72 h
[15] = target: T1, Androgen receptor (Homo sapiens); test: Inhibition of AR transcriptional activity in AR-positive human VCaP cells assessed as decrease in PSA protein expression at 20 uM after 48 hrs by immunoblot analysis; type: cell-based
[16] = target: T1, Androgen receptor (Homo sapiens); conditions: at 10 µM; remark: listed apart in the source
Description: Inhibition of AR transcriptional activity in AR-positive human 22Rv1 cells harboring ARE14 construct assessed as suppression of NKX3.1 expression at 10 uM after 24 hrs by immunoblot analysis

[17] = test system: CWR22R; test: Inhibition of colony formation in AR-positive human 22Rv1 cells harboring ARE14 construct at 1.25 to 20 uM incubated for 10 days by crystal violet staining; type: functional, cell-based
[18] = test system: VCaP; test: Induction of apoptosis in AR-positive human VCaP cells assessed as cleaved PARP level at 5 to 20 uM after 24 hrs by immunoblot analysis; type: functional, cell-based
[19] = target: T1, Androgen receptor (Homo sapiens); test: Inhibition of AR transcriptional activity in AR-positive human VCaP cells assessed as PSA protein expression at 5 to 20 uM after 24 hrs by immunoblot analysis; type: cell-based
[20] = target: T1, Androgen receptor (Homo sapiens); test: Inhibition of R1881 induced-AR transcriptional activity in AR-positive human 22Rv1 cells harboring ARE14 construct after 24 hrs by luciferase assay
[21] = test system: LNCaP; test: Antiproliferative activity against AR-positive human LNCAP cells assessed as cell viability at 40 uM measured after 72 hrs by resazurin dye based fluorescence assay relative to control; type: functional; conditions: read-out: Activity
[22] = test system: CWR22R; test: Antiproliferative activity against AR-positive human 22Rv1 cells harboring ARE14 construct assessed as cell viability at 40 uM measured after 72 hrs by resazurin dye based fluorescence assay relative to control; type: functional; conditions: 22Rv1, 72 h, read-out: Activity
[23] = test system: LAPC4; test: Antiproliferative activity against AR-positive human LAPC4 cells assessed as cell viability at 10 uM measured after 72 hrs by resazurin dye based fluorescence assay relative to control; type: functional; conditions: LAPC4, 72 h, read-out: Activity
[24] = test system: PC-3; test: Antiproliferative activity against AR-negative human PC3 cells assessed as cell viability at 10 uM measured after 72 hrs by resazurin dye based fluorescence assay relative to control; type: functional; conditions: PC-3, 72 h, read-out: Activity
[25] = test system: LNCaP; test: Antiproliferative activity against AR-positive human LNCAP cells assessed as cell viability at 10 uM measured after 72 hrs by resazurin dye based fluorescence assay relative to control; type: functional; conditions: read-out: Activity
[26] = test system: VCaP; test: Antiproliferative activity against AR-positive human VCaP cells assessed as cell viability at 10 uM measured after 72 hrs by resazurin dye based fluorescence assay relative to control; type: functional; conditions: read-out: Activity
[27] = test system: CWR22R; test: Antiproliferative activity against AR-positive human 22Rv1 cells harboring ARE14 construct assessed as cell viability at 10 uM measured after 72 hrs by resazurin dye based fluorescence assay relative to control; type: functional; conditions: 22Rv1, 72 h, read-out: Activity

## COC(=O)c1cnn2c1C[C@]1(C(C)=O)[C@@H](C[C@H]3[C@@H]4CCC5=CC(=O)CC[C@]5(C)[C@H]4CC[C@@]31C)C2
[1]
  viability at 40 µM: 95.1%
[2]
  GI50: > 40 µM
[3]
  GI50: > 40 µM
[4]
  GI50: > 40 µM
[5]
  GI50: > 40 µM
[6]
  Activity: inactive
[7]
  inhibition: Active
[8]
  Activity: Active
[9]
  viability at 40 µM: 98.3%
[10]
  inhibition: inactive
[11]
  inhibition: Active
[12]
  Activity: 40%
[13]
  viability at 40 µM: 85.1%
[14]
  GI50: > 40 µM
[15]
  inhibition: Active
[16]
  inhibition: Active
[17]
  inhibition: Active
[18]
  Activity: Active
[19]
  inhibition: inactive
[20]
  inhibition: Dose-dependent effect
[21]
  viability at 40 µM: 77.3%
[22]
  viability at 40 µM: 80.4%

## C[C@]12CC[C@H](O)CC1=CC[C@@H]1[C@@H]2CC[C@]2(C)C(n3cnc4ccccc43)=CC[C@@H]12 [GALETERONE]
[23]
  viability at 10 µM: 92.8%
[24]
  viability at 10 µM: > 100%
[8]
  Activity: Active
[18]
  Activity: Active
[25]
  viability at 10 µM: 91.6%
[26]
  viability at 10 µM: 72.9%
[27]
  viability at 10 µM: > 100%
